Test results as given in patent US20250171465A1, “AKT INHIBITORS” (Stablix, Inc., priority 2023, published 2025).
pIC50: −log10 of the molar value. Read-outs that look alike come from different tables or passages of the source.

Legend:
Format in all cases: cell-based
MDAMB231.1 = experiment: Cell Titer Glo (CTG) proliferation assay, MDA-MB-231; settings: MDAMB231.1 cells, 72 hrs., read-out: AVE CTG Proliferation MDAMB231.1 72 hrs.
Experimental: (§1) Seed cells in 40 μL of cell culture media into each well of 384-well cell culture plate, spin them at room temperature at 1,000 RPM for 1 minute and then transfer the plates into 37° C. 5% CO2 incubator overnight. Next day, treat cells with 40 nL of diluted compound and return to incubator. After compound treatment for 3 days, Add 30 μL of CellTiter-Glo reagent (Promega) into each well to be detected. Then place the plates at room temperature for 30 min followed by reading on EnVision. Inhibition activity calculated as % DMSO=100×(LumSample-Lum low control)/(Lum high control-Lum low control) where high control is from cells treated with 0.1% DMSO and Low control obtained from PBS only. Use XLFit (equation 201) to calculate IC50 (A+ ((B−A)/(1[…]((x/C)^D)))) where A: Bottom, B: Top, C: IC50, D: Slope.

KU1919.1 = experiment: Cell Titer Glo (CTG) proliferation assay, KU1919; settings: KU1919.1 cells, 72.0 hrs., read-out: AVE CTG Proliferation KU1919.1 72.0 hrs.
Outline: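 After overnight seeding at 37 °C, 5% CO2, cells were exposed to compound for 3 days. Viability read by CellTiter-Glo luminescence after 30 min at room temperature.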

MDAMB468.1 = experiment: Cell Titer Glo (CTG) proliferation assay, MDA-MB-468; settings: MDAMB468.1 cells, 72.0 hrs., read-out: AVE CTG Proliferation MDAMB468.1 72.0 hrs.
Experimental: as §1

| SMILES | pIC50 (MDAMB231.1; Homo sapiens, MDA-MB-231) | pIC50 (KU1919.1; Homo sapiens, KU-19-19) | pIC50 (MDAMB468.1; Homo sapiens, MDA-MB-468) | pIC50 (MDAMB231.1) | pIC50 (KU1919.1) | pIC50 (MDAMB468.1) |
| --- | --- | --- | --- | --- | --- | --- |
| C[C@@H]1C[C@@H](O)c2ncnc(N3CCN(C(=O)[C@H](CNCCNC(=O)CN4CCC(OC5CCN(C(=O)[C@H](NC(=O)c6cccc(C7CCCN(C(=O)CNCc8ccc(F)cc8F)C7)c6)C6CCCCC6)CC5)CC4)c4ccc(Cl)cc4)CC3)c21 (some centres unmarked) [Compound I-208] | 5.30 to 6.00 | 5.30 to 6.00 | 5.30 to 6.00 |  |  |  |
| C[C@@H]1C[C@@H](O)c2ncnc(N3CCN(C(=O)[C@H](CNCCNC(=O)CN4CCC(OC5CCN(C(=O)[C@H](NC(=O)c6cccc(C7CCCN(C(=O)CNC8CC8)C7)c6)C6CCCCC6)CC5)CC4)c4ccc(Cl)cc4)CC3)c21 (some centres unmarked) [Compound I-209] | 5.00 to 5.30 | 5.00 to 5.30 | 5.00 to 5.30 |  |  |  |
| C[C@@H]1C[C@@H](O)c2ncnc(N3CCN(C(=O)[C@H](CNCCNC(=O)CN4CCC(CN5CCN(C(=O)[C@H](NC(=O)c6cccc(C7CCCN(C(=O)CNCc8ccc(F)cc8F)C7)c6)C6CCCCC6)CC5)CC4)c4ccc(Cl)cc4)CC3)c21 (some centres unmarked) [Compound I-204] | 5.30 to 6.00 | 5.30 to 6.00 | 5.30 to 6.00 |  |  |  |
| C[C@@H]1C[C@@H](O)c2ncnc(N3CCN(C(=O)C(CN4CCC(CN5CCN(C(=O)[C@H](NC(=O)c6cccc([C@H]7CCCN(C(=O)C8CC8)C7)c6F)C6CCCCC6)CC5)CC4)c4ccc(Cl)cc4)CC3)c21 (some centres unmarked) [Compound I-277] | > 6.30 | > 6.30 | > 6.30 |  |  |  |
| C[C@@H]1C[C@@H](O)c2ncnc(N3CCN(C(=O)C(CN4CCC(CN5CCN(C(=O)[C@H](NC(=O)c6cccc([C@H]7CCCN(C(=O)CNCc8ccc(F)cc8F)C7)c6)C6CCCCC6)CC5)CC4)c4ccc(Cl)cc4)CC3)c21 (some centres unmarked) [Compound I-201] | 5.30 to 6.00 | 6.00 to 6.30 | 5.30 to 6.00 |  |  |  |
| CCc1cccc(-c2cc(F)c(C(=O)N3CCN(CC4CCN(CC(C(=O)N5CCN(c6ncnc7c6[C@H](C)C[C@H]7O)CC5)c5ccc(Cl)cc5)CC4)CC3)c(F)c2)c1 (some centres unmarked) [Compound I-262] | 5.30 to 6.00 | 6.00 to 6.30 | 5.30 to 6.00 |  |  |  |
| CCc1cccc(-c2cnc(C(=O)N3CCN(CC45CCC(NCC(=O)NCCNC[C@@H](C(=O)N6CCN(c7cccc8c7[C@H](C)C[C@H]8O)CC6)c6ccc(Cl)cc6)(CC4)CO5)CC3)c(NC(=O)OC(C)(C)C)c2)c1 [Compound I-305] | 5.30 to 6.00 | 5.30 to 6.00 | 5.30 to 6.00 |  |  |  |
| NC1(C(=O)N[C@@H](CCN2CCC(OC3CCN(C(=O)c4cccc(C5CCCN(C(=O)CNC6CC6)C5)c4)CC3)CC2)c2ccc(Cl)cc2)CCN(c2ncnc3[nH]ccc23)CC1 (some centres unmarked) [Compound I-252] | < 5.00 | 5.00 to 5.30 | 5.00 to 5.30 |  |  |  |
| C[C@@H]1C[C@@H](O)c2ncnc(N3CCN(C(=O)[C@H](CNCCNC(=O)CN4CCC(CN5CCN(C(=O)c6cccc(C7CCCN(C(=O)CNCc8ccc(F)cc8F)C7)c6)CC5)CC4)c4ccc(Cl)cc4)CC3)c21 (some centres unmarked) [Compound I-207] | < 5.00 | < 5.00 | < 5.00 |  |  |  |
| NC1(C(=O)N[C@@H](CCO)c2ccc(Cl)cc2)CCN(c2nc[nH]c3nccc2-3)CC1 [AZD-5363, Capivasertib, reference compound] |  |  |  | < 5.00 | < 5.00 | < 5.00 |
| CC(C)NC[C@@H](C(=O)N1CCN(c2ncnc3c2[C@H](C)C[C@H]3O)CC1)c1ccc(Cl)cc1 [GDC-0068, Ipatasertib, reference compound] | < 5.00 | < 5.00 | < 5.00 |  |  |  |
| CCOc1cc(OC)ccc1CNCC(=O)N1CCCC(c2cccc(C(=O)N[C@@H](C(=O)N3CCN(CC4CCN(CC(=O)NCCNC[C@@H](C(=O)N5CCN(c6ncnc7c6[C@H](C)C[C@H]7O)CC5)c5ccc(Cl)cc5)CC4)CC3)C3CCCCC3)c2)C1 (some centres unmarked) [Compound I-17] | 5.30 to 6.00 | 5.30 to 6.00 | 5.30 to 6.00 |  |  |  |
| NC1(C(=O)N[C@@H](CCN2CCC(OC3CCN(C(=O)c4cccc(C5CCCN(C(=O)C6CC6)C5)c4)CC3)CC2)c2ccc(Cl)cc2)CCN(c2ncnc3[nH]ccc23)CC1 (some centres unmarked) [Compound I-248] | 5.00 to 5.30 | 5.30 to 6.00 | 5.00 to 5.30 |  |  |  |
| C[C@@H]1C[C@@H](O)c2ncnc(N3CCN(C(=O)C(CN4CCC(CN5CCN(C(=O)[C@H](NC(=O)c6cccc([C@@H]7CCCN(C(=O)C8CC8)C7)c6F)C6CCCCC6)CC5)CC4)c4ccc(Cl)cc4)CC3)c21 (some centres unmarked) [Compound I-278] | 5.30 to 6.00 | 6.00 to 6.30 | 5.30 to 6.00 |  |  |  |
| CCc1cccc(-c2cnc(C(=O)N3CCN(CC4CCN(CC(=O)NCCNC[C@@H](C(=O)N5CCN(c6ncnc7c6[C@H](C)C[C@H]7O)CC5)c5ccc(Cl)cc5)CC4)CC3)c(N)c2)c1 [Compound I-213] | 5.30 to 6.00 | 5.30 to 6.00 | 5.30 to 6.00 |  |  |  |
| NC1(C(=O)N[C@@H](CCN2CCC(OC3CCN(C(=O)[C@H](NC(=O)c4cccc(C5CCCN(C(=O)CNCc6ccc(F)cc6F)C5)c4F)C4CCCCC4)CC3)CC2)c2ccc(Cl)cc2)CCN(c2ncnc3[nH]ccc23)CC1 (some centres unmarked) [Compound I-279] | 5.30 to 6.00 | 6.00 to 6.30 | 5.30 to 6.00 |  |  |  |
| CC(C)(C)OC(=O)N1CCC(OC2CCN(CC(=O)N3CCN(CC[C@H](NC(=O)C4(N)CCN(c5ncnc6[nH]ccc56)CC4)c4ccc(Cl)cc4)CC3)CC2)CC1 [Compound I-315] | < 5.00 | 5.30 to 6.00 | 5.30 to 6.00 |  |  |  |
| NC1(C(=O)N[C@@H](CCN2CCN(C(=O)CN3CCC(OC4CCN(C(=O)[C@H](NC(=O)c5cccc(C6CN(C(=O)C7CC7)C6)c5)C5CCCCC5)CC4)CC3)CC2)c2ccc(Cl)cc2)CCN(c2ncnc3[nH]ccc23)CC1 [Compound I-240] | 5.30 to 6.00 | 5.30 to 6.00 | 5.30 to 6.00 |  |  |  |
| NC1(C(=O)N[C@@H](CCN2CCN(C(=O)CN3CCC(OC4CCN(C(=O)[C@H](NC(=O)c5cccc(C6CCCN(C(=O)CNC7CC7)C6)c5)C5CCCCC5)CC4)CC3)CC2)c2ccc(Cl)cc2)CCN(c2ncnc3[nH]ccc23)CC1 (some centres unmarked) [Compound I-259] | 5.30 to 6.00 | 5.30 to 6.00 | 5.30 to 6.00 |  |  |  |
| NC1(C(=O)N[C@@H](CCN2CCN(C(=O)CN3CCC(OC4CCN(C(=O)[C@H](NC(=O)c5cc(C6CN(C(=O)C7CC7)C6)ccc5F)C5CCCCC5)CC4)CC3)CC2)c2ccc(Cl)cc2)CCN(c2ncnc3[nH]ccc23)CC1 [Compound I-227] | 5.30 to 6.00 | 5.30 to 6.00 | 5.30 to 6.00 |  |  |  |
| NC1(C(=O)N[C@@H](CCN2CCN(C(=O)CN3CCC(OC4CCN(C(=O)[C@H](NC(=O)c5cccc(C6CCCN(C(=O)CNCc7ccc(F)cc7F)C6)c5)C5CCCCC5)CC4)CC3)CC2)c2ccc(Cl)cc2)CCN(c2ncnc3[nH]ccc23)CC1 (some centres unmarked) [Compound I-258] | 5.30 to 6.00 | 6.00 to 6.30 | 5.30 to 6.00 |  |  |  |
| C[C@@H]1C[C@@H](O)c2ncnc(N3CCN(C(=O)C(CN4CCC(CN5CCN(C(=O)[C@H](NC(=O)c6cccc([C@H]7CCCN(C(=O)CNC8CC8)C7)c6)C6CCCCC6)CC5)CC4)c4ccc(Cl)cc4)CC3)c21 (some centres unmarked) [Compound I-211] | 5.30 to 6.00 | 6.00 to 6.30 | 5.30 to 6.00 |  |  |  |
| CCc1cccc(-c2cnc(C(=O)N3CCC(OC4CCN(CC(=O)NCCNC[C@@H](C(=O)N5CCN(c6ncnc7c6[C@H](C)C[C@H]7O)CC5)c5ccc(Cl)cc5)CC4)CC3)c(NC(=O)CN3CCOCC3)c2)c1 [Compound I-174] |  | 5.30 to 6.00 | 5.30 to 6.00 |  |  |  |
| NC1(C(=O)N[C@@H](CCN2CCN(C(=O)CN3CCC(OC4CCN(C(=O)[C@H](NC(=O)c5ccc(C6CN(C(=O)CNCc7ccc(F)cc7F)C6)cc5)C5CCCCC5)CC4)CC3)CC2)c2ccc(Cl)cc2)CCN(c2ncnc3[nH]ccc23)CC1 [Compound I-230] | 5.30 to 6.00 | 5.30 to 6.00 | 5.30 to 6.00 |  |  |  |
| NC1(C(=O)N[C@@H](CCN2CCN(C(=O)CN3CCC(OC4CCN(C(=O)[C@H](NC(=O)c5cc(C6CCCN(C(=O)C7CC7)C6)ccc5F)C5CCCCC5)CC4)CC3)CC2)c2ccc(Cl)cc2)CCN(c2ncnc3[nH]ccc23)CC1 (some centres unmarked) [Compound I-224] | 5.30 to 6.00 | 5.30 to 6.00 | 5.30 to 6.00 |  |  |  |
| C[C@@H]1C[C@@H](O)c2ncnc(N3CCN(C(=O)[C@H](CNCCNC(=O)CN4CCC(CN5CCN(C(=O)c6cccc(C7CCCN(C(=O)CNC8CC8)C7)c6)CC5)CC4)c4ccc(Cl)cc4)CC3)c21 (some centres unmarked) [Compound I-206] | < 5.00 | < 5.00 | < 5.00 |  |  |  |
| CCc1cccc(-c2cnc(C(=O)NCCOCCNCC(=O)NCCN(C[C@@H](C(=O)N3CCN(c4ncnc5c4[C@H](C)C[C@H]5O)CC3)c3ccc(Cl)cc3)C(C)C)c(NC(C)=O)c2)c1 [Compound I-216] |  | 5.30 to 6.00 | 5.30 to 6.00 |  |  |  |
| CCc1cccc(-c2cnc(C(=O)N3CCC(OC4CCN(CC(=O)NCCNC[C@@H](C(=O)N5CCN(c6ncnc7c6[C@H](C)C[C@H]7O)CC5)c5ccc(Cl)cc5)CC4)CC3)c(NC(=O)CNCc3ccncn3)c2)c1 [Compound I-167] |  | < 5.00 | < 5.00 |  |  |  |
| CCc1cccc(-c2cnc(C(=O)N3CCC(OC4CCN(CC(=O)NCCNC[C@@H](C(=O)N5CCN(c6ncnc7c6[C@H](C)C[C@H]7O)CC5)c5ccc(Cl)cc5)CC4)CC3)c(N)c2)c1 [Compound I-194] |  | 5.00 to 5.30 | 5.00 to 5.30 |  |  |  |
